Measured values from publication PMC5142287, “Weight control interventions improve therapeutic efficacy of dacarbazine in melanoma by reversing obesity-induced drug resistance” (Cancer & Metabolism, 2016).
“Also recorded” adds a separate entry of the source.

Legend:
B16F1 cells = test: Long-term survival assay, B16F1 cells in serum from experimental mice; type: cell-based, Murine
Text: Additional file 1: Table S1. Composition of diets used in the study. Normal diet (ND) was procured from Amrut Laboratory Animal Feed, Pune, India, and high fat diet (HFD) was purchased from Provimi Animal Nutrition Pvt. Ltd., Bangalore, India. *, HFD was also supplemented with 400 g groundnut and 200 g dried coconut per kg body weight of mice. […] Obesity-associated parameters in the experimental ND mice recorded at the end of the experiment. ND male C57BL/6J mice were divided into two major groups. One group was orally treated with orlistat every alternate day before inoculating with B16F10 cells. The second group was orally given vehicle control on every alternate day for 8 weeks. Mice from both the groups (N = 11 per each group) were injected (s.c.) with B16F10 cells (2 × 10^5 cells/mouse in 100 μl PBS). Their body weight was monitored weekly throughout the study, and serum was collected at the end of the experiment. Blood glucose, serum TG, serum cholesterol, serum-free fatty acids, and serum LDLc were measured. Serum factors including leptin, adiponectin, insulin, resistin, IL-6, and TNF-α were estimated by ELISA. […] Effect of obesity-associated serum factors on the protein level of P-gp, Cav-1, and FASN in B16F1 cells. […] The data were recorded using Zeiss LSM510 META Confocal Microscope. […] Data were acquired on FACS Calibur and analyzed using BD CellQuest Pro software. […]

[1] = system: FASN, P-gp, Cav-1, pAkt, PCNA, and cyclin D1; test: Western blot of tumor lysates of B16F10-isografted mice; type: in vivo, C57BL/6J mice
Method: Melanoma tumor samples or cells were washed three to five times with ice-cold PBS and lysed in ice-cold RIPA lysis buffer as described previously. Briefly, the samples were centrifuged at 12000 RPM for 40 min and clear supernatants were stored at −80 °C. Protein concentrations were determined by Coomassie Plus Protein Assay Reagent (Thermo Scientific, IL, USA). Equal amounts of protein samples (50–100 μg) were resolved on 8–10% SDS-polyacrylamide gel and then transferred onto PVDF membrane (Millipore, MA, USA). […] After washing, the membranes were incubated with HRP-conjugated secondary antibodies (1:2000) and blots were developed using luminescence detection reagents (Santa Cruz Biotechnology, CA, USA).

[2] = LC-MS/MS quantitation of DTIC in tumor, plasma, liver and adipose tissue
Method: The samples were introduced to the mass spectrometer through a reversed-phase column (Agilent ZORBAX SB-C18, 2.1 × 30 mm, 3.5 μm). The mobile phase containing water and acetonitrile with 0.1% formic acid was infused at a flow rate of 0.4 ml min^−1. The MS scan range was set between 100 and 1000 m/z, with the dry gas flow and dry gas temperature maintained at 6 L min^−1 and 320 °C, respectively. […] All the mass spectrometric data were acquired in positive ionization mode using Agilent MassHunter data acquisition software, version B.05.01. MassHunter Quantitative analysis software, version B.07.00 was used for the generation of calibration curves and subsequent quantitation of DTIC in the samples. Calibration curves were created using linear fitting, 1/x weighting and including the origin. Calibration standards (0.5–800 ng) were prepared using standard DTIC. All the samples including the standard DTIC preparations were spiked with leucine enkephalin (10 ng) as internal standard. […] The quantitation capability of this method is evaluated by using samples with known concentrations.

B16F10 melanoma = B16F10 melanoma isograft in ND C57BL/6J mice: tumor growth and survival
Method: Melanoma cells were injected and orlistat treatment was continued. Following tumor formation, all groups of mice were treated with vehicle (acidified water) or DTIC, and tumor volume was followed up in these mice throughout the study as mentioned above. […] At the end of the experiment, mice were sacrificed, tumors were excised, and the samples were immediately preserved at −80 °C until further use. Five mice from each group were followed up for survival studies as mentioned above.

[3] = Obesity-associated factors in B16F10-isografted ND C57BL/6J mice; type: in vivo; details: end of experiment
Text: Blood glucose levels and serum lipids were estimated as described previously. Insulin, leptin, and adiponectin levels in the serum were estimated by mouse-specific respective ELISA kits as described. Resistin, IL-6, and TNF-α levels in the serum were detected by indirect ELISA as described previously.

CN(C)/N=N/c1[nH]cnc1C(N)=O [DTIC, Dacarbazine]
Increase of sensitivity to DTIC (B16F1 cells; HFD serum, FASN, Cav-1 and P-gp simultaneously inhibited): approximately 80% | Reduction of cell survival (B16F1 cells; serum from orlistat-treated or diet-shifted obese mice, DTIC at 1415 μM): ~75% | Level of P-gp in tumors ([1]; HFD mice): further increased | Protein levels of cyclin D1 and PCNA in tumors ([1]; HFD mice): increase | Cav-1 levels in tumors ([1]; HFD mice treated with DTIC): elevated | FASN level in tumors ([1]; HFD mice treated with DTIC): further increased | Level of P-gp in tumors ([1]; ND mice): reduced | Protein levels of cyclin D1 and PCNA in tumors ([1]; ND mice): reduced levels | FASN and Cav-1 level in tumors ([1]; ND mice treated with DTIC): much lower | DTIC level in the plasma, liver, and adipose tissue ([2]; HFD mice compared to ND mice): higher | Level of DTIC in tumors from HFD mice, fold less than in ND counterparts ([2]; tumor, mass spectrometry): ~ 6 fold | Survival of tumor-bearing mice (B16F10 melanoma): prolonged | Tumor progression (tumor volume and weight) (B16F10 melanoma; DTIC 80 mg/kg i.p. 5 days, orlistat 10 mg/kg oral alternate days): significantly reduced; also recorded: significantly decreased | Blood glucose ([3]; mean): 161.17 mg/dL | Serum IL-6 ([3]; mean): 20.19 pg/mL | Serum LDLc ([3]; mean): 53.12 mg/dL | Serum TG ([3]; mean): 55.40 mg/dL | Serum TNF-D ([3]; mean): 12.35 pg/mL | Serum adiponectin ([3]; mean): 13873 ng/mL | Serum cholesterol ([3]; mean): 82.82 mg/dL | Serum free fatty acids ([3]; mean): 0.90 mM/L | Serum insulin ([3]; mean): 0.114 µg/L | Serum leptin ([3]; mean): 15.74 ng/mL | Serum resistin ([3]; mean): 0.99 ng/mL | Body weight ([3]; mean (SD on next line)): 21.1 g
